Data as given in publication PMC9995496, “A screen for MeCP2-TBL1 interaction inhibitors using a luminescence-based assay” (Scientific Reports, 2023).
Structures can show the parent of a compound that is named as a salt. Where two headings read alike, the source gives them in different places.

Test system: PRKACA-PRKAR2A interaction (SmBiT-PRKACA / LgBiT-PRKAR2A), protein kinase A
Design: NanoLuc complementation counter-screen in cell extract, PRKACA with PRKAR2A, loss of luminescence, detects NanoLuc interference
Details: counter-screen for NanoLuc interference, 0.5 h, 20 µM, inhibitor

| SMILES | Inh (PKA) | Inh (PKA) (Inh (PKA)) |
| --- | --- | --- |
| COC1=C2C[C@@H](C)C[C@H](OC)[C@H](O)[C@@H](C)/C=C(\C)[C@H](OC(N)=O)[C@@H](OC)/C=C\C=C(/C)C(=O)NC(=CC1=O)C2=O [UM0141686:01, Geldanamycin] | 5.017% | – |
| CC1(C)CC(=O)c2c(C(F)(F)F)nn(-c3ccc(C(N)=O)c(N[C@H]4CC[C@H](OC(=O)CN)CC4)c3)c2C1 [UM0141688:01, PF-04929113 (SNX-5422)] | 8.876% | – |
| CC1(C)CC(=O)c2c(C(F)(F)F)nn(-c3ccc(C(N)=O)c(N[C@H]4CC[C@H](O)CC4)c3)c2C1 [UM0141689:01, SNX-2112] | 12.62% | – |
| COc1cc2c(cc1Cc1cccc(Cl)c1F)c(=O)c(C(=O)O)cn2[C@H](CO)C(C)C [UM0141691:01, Elvitegravir (GS-9137)] | 4.883% | – |
| CCN1C[C@H](C)n2c(c(O)c3c(=O)n(Cc4ccc(F)c(Cl)c4)nc(C(=O)NC)c32)C1=O [UM0141692:01, MK-2048] | 3.571% | – |
| C[C@@H]1CCO[C@H]2Cn3cc(C(=O)NCc4ccc(F)cc4F)c(=O)c(O)c3C(=O)N12 [UM0141694:01, S/GSK1349572] | 3.965% | – |
| O=C(CCCCCCNC(=O)c1cnc(N(c2ccccc2)c2ccccc2)nc1)NO [UM0141695:01, Rocilinostat (ACY-1215)] | 1.949% | – |
| C#Cc1cccc(Nc2ncnc3cc(OC)c(OCCCCCCC(=O)NO)cc23)c1 [UM0141699:01, CUDC-101] | 11.72% | – |
| Cn1cc(/C=C/C(=O)c2cccc(F)c2)cc1/C=C/C(=O)NO [UM0141701:01, MC1568] | 48.72% | – |
| O=C(/C=C/c1cccc(S(=O)(=O)Nc2ccccc2)c1)NO [UM0141702:01, Belinostat (PXD101)] | 1.422% | – |
| CC(C)[C@H](C(=O)Nc1ccc(C(=O)NO)cc1)c1ccccc1 [UM0141708:01, AR-42 (OSU-HDAC42)] | 2.219% | – |
| CN(C)c1ccc(C(=O)NCCCCCCC(=O)NO)cc1 [UM0141709:01, M344] | 1.639% | – |
| O=C(Nc1c[nH]nc1-c1nc2ccc(CN3CCOCC3)cc2[nH]1)NC1CC1 [UM0141714:01, AT9283] | 10.96% | – |
| O=C(Nc1cccc(Cl)c1)Nc1ncc(CCNc2ncnc3ccsc23)s1 [UM0141718:01, SNS-314 Mesylate] | 29.21% | – |
| C[C@@H]1CCN(C(=O)CC#N)C[C@@H]1N(C)c1ncnc2[nH]ccc12 [UM0141728:01, Tofacitinib (CP-690550) Citrate] | – | -4.37% |
| C[C@H](NC(=O)/C(C#N)=C/c1cccc(Br)n1)c1ccccc1 [UM0141729:01, WP1066] | 28.21% | – |
| CCn1c(C(=O)N(C2CC2)C2CC2)cc2c3c(ncn3C)c(Nc3cc(C)n(C)n3)nc21 [UM0141734:01, BMS-911543] | 4.215% | – |
| NC(=O)c1ccc(I)c([N+](=O)[O-])c1 [UM0141736:01, Iniparib (BSI-201)] | 1.39% | – |
| CC(C)N(CCCNC(=O)Nc1ccc(C(C)(C)C)cc1)C[C@H]1O[C@@H](n2cc(Br)c3c(N)ncnc32)[C@H](O)[C@@H]1O [UM0141743:01, SGC 0946] | 3.83% | – |
| CCN(CC)C(=O)/C(C#N)=C/c1cc(O)c(O)c([N+](=O)[O-])c1 [UM0141744:01, Entacapone] | 34.9% | – |
| CC(C)N(CCCNC(=O)Nc1ccc(C(C)(C)C)cc1)C[C@H]1O[C@@H](n2ccc3c(N)ncnc32)[C@H](O)[C@@H]1O [UM0141745:01, EPZ004777] | 1.222% | – |
| Nc1nc2[nH]cnc2c(=S)[nH]1 [UM0141747:01, Thioguanine] | 3.135% | – |
| CC(NC(=O)c1ccccc1/N=C/c1c(O)ccc2ccccc12)c1ccccc1 (stereo not shown) [UM0141749:01, Sirtinol] | 11.59% | – |
| CCOC(=O)Nc1cc(-c2ccc(C)c(NS(C)(=O)=O)c2)nn2c(C)nnc12 [UM0141751:01, Bromosporine] | 9.043% | – |
| O=C(O)CNC(=O)c1c(O)c2ccccc2n(Cc2ccccc2)c1=O [UM0141753:01, IOX2(Glycine)] | 18.92% | – |
| O=C1NC(=O)/C(=C/c2cccc(C(F)(F)F)c2)S1 [UM0141757:01, SMI-4a] | 63.38% | – |

The remaining lines, values ahead:

| Inh (PKA) | Inh (PKA) (Inh (PKA)) | SMILES |
| --- | --- | --- |
| 4.266% | – | Cn1c(N2CCCCS2(=O)=O)nc(C(=O)NCc2ccc(F)cc2)c(O)c1=O [UM0141690:01, BMS-707035] |
| 1.324% | – | Cc1nnc(C(=O)NC(C)(C)c2nc(C(=O)NCc3ccc(F)cc3)c(O)c(=O)n2C)o1 [UM0141693:01, Raltegravir (MK-0518)] |
| 5.263% | – | Nc1ccccc1NC(=O)c1ccc(CNc2nccc(-c3cccnc3)n2)cc1 [UM0141696:01, Mocetinostat (MGCD0103, MG0103)] |
| 2.58% | – | Cn1cc(CNCC2CCN(c3ncc(C(=O)NO)cn3)CC2)c2ccccc21 [UM0141697:01, JNJ-26481585] |
| 4.873% | – | COc1ccc(Cn2ccc3ccc(C(=O)NO)cc32)cc1 [UM0141698:01, PCI-34051] |
| 1.847% | – | CCN(CC)Cc1ccc2cc(COC(=O)Nc3ccc(C(=O)NO)cc3)ccc2c1 [UM0141700:01, ITF2357 (Givinostat)] |
| 0.8331% | – | CN(C)Cc1c(C(=O)NCCOc2ccc(C(=O)NO)cc2)oc2ccccc12 [UM0141704:01, PCI-24781 (CRA-024781)] |
| 3.4% | – | O=C(/C=C/c1ccc(CN(CCO)CCc2c[nH]c3ccccc23)cc1)NO [UM0141707:01, LAQ824 (NVP-LAQ824,Dacinostat)] |
| 1.101% | – | COc1cc2c(Nc3ccc(NC(=O)c4ccccc4)cc3)ncnc2cc1OCCCN1CCOCC1 [UM0141710:01, ZM 447439] |
| 70.21% | – | O=C(O)c1ccc(Nc2ncc3c(n2)-c2ccc(Cl)cc2C(c2c(F)cccc2F)=NC3)cc1 [UM0141711:01, MLN8054] |
| 15.42% | – | Nc1nc(Nc2ccc(S(N)(=O)=O)cc2)nn1C(=O)c1c(F)cccc1F [UM0141712:01, JNJ-7706621] |
| 4.91% | – | CO[C@@H](C(=O)N1Cc2[nH]nc(NC(=O)c3ccc(N4CCN(C)CC4)cc3)c2C1)c1ccccc1 [UM0141713:01, Danusertib (PHA-739358)] |
| 53.45% | – | CCS(=O)(=O)Nc1ccc2c(c1)/C(=C(/Nc1ccc(CN3CCCCC3)cc1)c1ccccc1)C(=O)N2 [UM0141715:01, Hesperadin] |
| 63.02% | – | Cc1csc(-c2nnc(Nc3ccc(Oc4ncccc4-c4ccnc(N)n4)cc3)c3ccccc23)c1 [UM0141716:01, AMG-900] |
| 44.53% | – | O=C(O)[C@]1(Cc2cccc(Nc3nccs3)n2)CC[C@@H](Oc2cccc(Cl)c2F)CC1 [UM0141717:01, MK-5108 (VX-689)] |
| 7.851% | – | CCc1cccc(CC)c1NC(=O)N1Cc2[nH]nc(NC(=O)c3ccc(N4CCN(C)CC4)cc3)c2C1 [UM0141719:01, PHA-680632] |
| 34.71% | – | O=C(c1ccc(/C=C/c2n[nH]c3ccccc23)cc1)N1CCNCC1 [UM0141720:01, KW 2449] |
| 28.15% | – | CCS(=O)(=O)c1cccc(-c2cc(C(=O)NC3CCN(C)CC3)c(C)c3[nH]c4ncc(C)cc4c23)c1 [UM0141721:01, TAK-901] |
| 23.62% | – | Cc1nc(N)sc1-c1ccnc(Nc2ccc(N3CCOCC3)cc2)n1 [UM0141722:01, CYC116] |

| Inh (PKA) | Inh (PKA) (Inh (PKA)) | SMILES |
| --- | --- | --- |
| 22.92% | – | CCN1CCN(C(=O)Cc2ccc(Nc3ncc(F)c(Nc4ccc(C(=O)Nc5ccccc5Cl)cc4)n3)cc2)CC1 [UM0141723:01, Aurora A Inhibitor I] |
| – | 17.98% | Cc1cc(Nc2cc(N3CCN(C)CC3)nc(/C=C/c3ccccc3)n2)n[nH]1 [UM0141724:01, ENMD-2076 L-(+)-Tartaric acid] |
| – | 15.95% | Cc1cc(Nc2cc(N3CCN(C)CC3)nc(/C=C/c3ccccc3)n2)n[nH]1 [UM0141725:01, ENMD-2076] |
| 76.32% | – | CN(C)c1ccc(-c2nc3ncc(Cl)c(N4CCN(CC(=O)Nc5nccs5)CC4)c3[nH]2)cc1 [UM0141726:01, CCT129202] |
| 46.74% | – | Cc1cc(CN2CCN(c3c(Br)cnc4nc(-c5ccc(N6CCN(C)CC6)cc5)[nH]c34)CC2)no1 [UM0141727:01, CCT137690] |
| 36.26% | – | Cc1cnc(Nc2ccc(N3CCN(C)CC3)cc2)nc1Nc1cccc(S(=O)(=O)NC(C)(C)C)c1 [UM0141731:01, TG101209] |
| 32.81% | – | CN1CCN(c2cccc(Nc3nc4c(-c5ccc(S(C)(=O)=O)cc5)cccn4n3)c2)CC1 [UM0141732:01, CEP-33779] |
| 5.771% | – | Cn1ncnc1[C@H]1c2n[nH]c(=O)c3cc(F)cc(c23)N[C@@H]1c1ccc(F)cc1 [UM0141735:01, BMN 673] |
| 2.033% | – | CN(C)Cc1ccc(-c2nc3cccc4c3n2CCNC4=O)cc1 [UM0141737:01, AG-14361] |
| 3.156% | – | CN(C)CC(=O)Nc1ccc2[nH]c(=O)c3ccccc3c2c1 [UM0141738:01, PJ34 hydrochloride] |
| 5.639% | – | NC(=O)c1cccc2[nH]c(-c3ccc([C@@H]4CCCN4)cc3F)nc12 [UM0141739:01, A-966492] |
| 15.76% | – | O=C(COc1cccc2c(=O)[nH]ccc12)c1ccccc1 [UM0141740:01, UPF 1069] |
| 1.514% | – | COC1CCN(C(=O)c2cc(Cc3n[nH]c(=O)c4ccccc34)ccc2F)CC1 [UM0141741:01, AZD2461] |
| 11.88% | – | Cc1cc(C)c(CNC(=O)c2cc(-c3ccc(CN4CCOCC4)cc3)cc3c2cnn3C2CCCC2)c(=O)[nH]1 [UM0141746:01, EPZ005687] |
| 3.719% | – | COc1ccccc1S(=O)(=O)Nc1ccc2c(c1)CN(C)C(=O)N2 [UM0141750:01, PFI-1 (PF-6405761)] |
| 9.511% | – | Cc1nc(C(=O)NCC(=O)O)c(O)c2ccc(Oc3ccccc3)cc12 [UM0141752:01, FG-4592 (ASP1517)] |
| 11.33% | – | CCOC(=O)CCNc1cc(N2CCc3ccccc3CC2)nc(-c2ccccn2)n1 [UM0141754:01, GSK J4 HCl] |
| 1.8% | – | O=C(O)CCNc1cc(N2CCc3ccccc3CC2)nc(-c2ccccn2)n1 [UM0141755:01, GSK J1] |
| 32.18% | – | CN1CCC(CNc2ccc3ncc(-c4cccc(OC(F)(F)F)c4)n3n2)CC1 [UM0141756:01, SGI-1776 free base] |
